Measured values: US20180282818A1, “Therapeutic Cancer Treatments Based on TP53 Gene Mutations” (The Wistar Institute of Anatomy and Biology, priority 2015, published 2018)
pEC50: −log10 of the molar value.

Columns and labels:
Format in all cases: cell-based
S47 cells = experiment: Resazurin cytotoxicity screening, S47 cells; details: for pEC50: S47 cells, 72 hours, resazurin fluorescence, normalized to doxorubicin and DMSO; for Fold-resistant, S47 / Fold-sensitive, S47: S47 versus WT EC50
Method: (§1) The screening methods were performed as follows. S47 and wild type cells were plated at a density of 750 cells/well in a total volume of 50 μL in 384 well Greiner microplates. The cells were allowed to attach overnight at 37° C. and then dosed with 50 nL of compound serially diluted in DMSO. Following compound addition, the assay plates were incubated at 37° C. for 72 hours, followed by the addition of 5 μL of […] Resazurin. The plates were incubated at 37° C. for 8-10 hours and then fluorescence was measured using a Perkin Elmer Envision plate reader (excitation at 530-560 nm, emission at 590 nm). Raw fluorescent counts were uploaded into Spotfire and normalized to doxorubicin (positive control) and DMSO (negative control) treated wells (n=12/plate). EC50 values were calculated by applying a logistic regression curve fit and expressed as μM compound that was effective in killing 50% of the cell population at 72 hours.

wild type cells = experiment: Resazurin cytotoxicity screening, wild type cells; details: 72 hours, resazurin fluorescence, normalized to doxorubicin and DMSO, read-out: WT EC50
Method: as §1

S47 tumor cells = experiment: Sensitivity of E1A/Ras-transformed S47 tumor cells compared to WT cells; details: S47 and WT cells expressing E1A/Ras
Method: S47 and WT cells expressing E1A/Ras were analyzed.
A tumorigenic (transformed) version of WT and S47 cells may be created as follows. WT and S47 cells were transfected with two oncogenes (E1A and Ras).

SMILES: Cc1cn(-c2cc(NC(=O)c3ccc(C)c(Nc4nccc(-c5cccnc5)n4)c3)cc(C(F)(F)F)c2)cn1 [AMN107]
- pEC50 (S47 cells): < 5.00
- Fold-resistant, S47 (S47 cells): 28
- pEC50 (wild type cells): 6.45

SMILES: C[C@@H]1COCCN1c1cc(C2([S@](C)(=N)=O)CC2)nc(-c2cc[nH]c3nccc2-3)n1 [AZD6738]
- pEC50 (S47 cells): < 5.00
- Fold-resistant, S47 (S47 cells): 26
- pEC50 (wild type cells): 6.42

SMILES: N.N.[Cl][Pt][Cl] [Cisplatin, (SP-4-2)-diamminedichloroplatinum(II)]
- pEC50 (S47 cells): 6.10
- Fold-resistant, S47 (S47 cells): 2.3
- Sensitivity of S47 tumor cells compared to WT cells (S47 tumor cells): more sensitive
- pEC50 (wild type cells): 6.46

SMILES: COc1cccc2c1C(=O)c1c(O)c3c(c(O)c1C2=O)C[C@@](O)(C(=O)CO)C[C@@H]3O[C@H]1C[C@H](N)[C@H](O)[C@H](C)O1 [Doxorubicin]
- pEC50 (S47 cells): 6.53
- Fold-resistant, S47 (S47 cells): 2
- pEC50 (wild type cells): 6.84

SMILES: CS(=O)(=O)N1CCN(Cc2cc3nc(-c4cccc5[nH]ncc45)nc(N4CCOCC4)c3s2)CC1 [GDC0941, 2-(1H-indazol-4-yl)-6-((4-(methylsulfonyl)piperazin-1-yl)methyl)-4-morpholinothieno[3,2-d]pyrimidine]
- pEC50 (S47 cells): 7.92
- Fold-sensitive, S47 (S47 cells): 2.33
- pEC50 (wild type cells): 7.55

SMILES: COc1ncc(-c2ccc3nccc(-c4ccnnc4)c3c2)cc1NS(=O)(=O)c1ccc(F)cc1F [GSK2126458, 2,4-difluoro-N-(2-methoxy-5-(4-(pyridazin-4-yl)quinolin-6-yl)pyridin-3-yl)benzenesulfonamide]
- pEC50 (S47 cells): 9.34
- Fold-sensitive, S47 (S47 cells): 3.26
- pEC50 (wild type cells): 8.82

SMILES: CC(C)n1nc(-c2ccc3oc(N)nc3c2)c2c(N)ncnc21 [INK128, 5-(4-amino-1-isopropyl-1H-pyrazolo[3 ,4-d]pyrimidin-3-yl)benzo[d]oxazol-2-amine]
- pEC50 (S47 cells): 8.02
- Fold-sensitive, S47 (S47 cells): 1.5
- pEC50 (wild type cells): 7.84

SMILES: Cc1[nH]c2ccccc2c1CCNCc1ccc(/C=C/C(=O)NO)cc1 [LBH589]
- pEC50 (S47 cells): 8.18
- Fold-resistant, S47 (S47 cells): 2
- pEC50 (wild type cells): 8.49

SMILES: COc1cccc2cc(-c3nc([C@H]4CC[C@H](C(=O)O)CC4)n4ncnc(N)c34)[nH]c12 [OSI027, trans-4-[4-amino-5-(7-methoxy-1H-indol-2-yl)imidazo[5,1-f][1,2,4]triazin-7-yl]cyclohexanecarboxylic acid]
- pEC50 (S47 cells): 6.76
- Fold-sensitive, S47 (S47 cells): 4.3
- Sensitivity of S47 tumor cells compared to WT cells (S47 tumor cells): more sensitive
- pEC50 (wild type cells): 6.13

SMILES: CC[C@@]1(O)C(=O)OCc2c1cc1n(c2=O)Cc2cc3ccccc3nc2-1 [camptothecin]
- Sensitivity of S47 tumor cells compared to WT cells (S47 tumor cells): less sensitive
